Assay results reported in patent US11806342B2, “Diiodohydroxyquinoline for the treatment of clostridium difficile infection” (Purdue Research Foundation, priority 2019, dated 2023).
Values after ≈ are worked out from the molar mass of the structure shown. Read-outs that look alike come from different tables or passages of the source.

Tests used:
[1] = system: species of Bacteroides and Bifidobacterium; experiment: MIC against normal gut microflora; type: cell-based; conditions: species of Bacteroides and Bifidobacterium tested; for DIHQ except B. longum, B. adolescentis, B. angulatum; read-out: MIC (growth inhibitory concentration)
Experimental: (§1) In vitro antimicrobial evaluation of diiodohydroxyquinoline against normal microflora. The broth microdilution assay was utilized to determine the MICs of DIHQ and control antibiotics against commensal organisms that compose he human gut microflora, as described elsewhere. A bacterial solution equivalent to 0.5 McFarland standard was prepared and diluted in BHIS broth (for Bifidobacterium and Bacteroides) or in MRS broth (for Lactobacillus) to achieve a bacterial concentration of about 5×10^5 CFU/mL. Then, drugs were added and serially diluted along the plates.

[2] = system: Bifidobacterium longum; experiment: MIC against normal gut microflora; type: cell-based; conditions: both strains
Experimental: as §1

[3] = system: C. difficile ATCC BAA-1870; experiment: Initial screening of antiparasitic drugs, broth microdilution MIC; type: cell-based, Clostridium difficile; conditions: Clostridioides difficile
[4] = system: 2 clinical C. difficile strains; experiment: Initial screening of antiparasitic drugs, both strains; type: cell-based, Clostridium difficile; conditions: Clostridioides difficile, both tested C. difficile strains, read-out: MIC (growth inhibitory concentration)
Experimental: C. difficile strains were grown anaerobically on brain heart infusion supplemented (BHIS) agar plates at 37° C. for 48 hours. Afterwards, a bacterial solution equivalent to 0.5 McFarland standard was prepared and diluted in (BHIS) broth to achieve a bacterial concentration of about 5×10^5 CFU/mL. Drugs were added and serially diluted along the plates. Plates were then, incubated anaerobically at 37° C. for 48 hours. MICs reported in Table (1) are the minimum concentrations of the drugs that could completely suppress the visual growth of bacteria.

[5] = system: Lactobacillus reuteri HM-102; experiment: MIC against normal gut microflora, broth microdilution; type: cell-based
Experimental: as §1

[6] = system: Lactobacillus crispatus HM-371; experiment: as above; type: cell-based; conditions: HM371
Experimental: as §1

[7] = system: Bacteroides dorei HM-719; experiment: as above; type: cell-based; conditions: Phocaeicola dorei, HM719
Experimental: as §1

[8] = system: Bifidobacterium longum HM-847; experiment: as above; type: cell-based; conditions: HM847
Experimental: as §1

[9] = system: Bifidobacterium angulatum HM-1189; experiment: as above; type: cell-based; conditions: HM1189
Experimental: as §1

[10] = system: Lactobacillus casei ATCC 334; experiment: as above; type: cell-based; conditions: Lacticaseibacillus casei, ATCC334
Experimental: as §1

[11] = system: Bifidobacterium breve HM-411; experiment: as above; type: cell-based; conditions: HM411
Experimental: as §1

[12] = system: C. difficile clinical isolates; experiment: Checkerboard assay, summary over 9 tested strains; type: cell-based, Clostridium difficile
Experimental: Interactions between diiodohydroxyquinoline and the anticlostridial drugs (metronidazole and vancomycin) against Clostridium difficile clinical isolates. […] The fractional inhibitory concentration index (ΣFIC) was calculated for each interaction. Interactions where the ΣFIC index was ≤0.5 were categorized as synergistic (SYN).

[13] = system: Lactobacillus and Bacteroides strains; experiment: MIC against normal gut microflora; type: cell-based; conditions: Phocaeicola dorei; Lactobacillus and Bacteroides strains tested, with the exception of B. dorei HM-719; read-out: MIC (growth inhibitory concentration)
Experimental: as §1

[14] = system: Bifidobacterium strains; experiment: MIC against normal gut microflora; type: cell-based; conditions: Bifidobacterium strains tested
Experimental: as §1

[15] = Limosilactobacillus reuteri, HM102, Lactobacillus reuteri HM-102, read-out: MIC
[16] = Lactobacillus crispatus HM-371, read-out: MIC
[17] = Bacteroides dorei HM-719, read-out: MIC
[18] = Bifidobacterium longum HM-847, read-out: MIC
[19] = Bifidobacterium angulatum HM-1189, read-out: MIC
[20] = Lactobacillus casei ATCC 334, read-out: MIC
[21] = Bifidobacterium breve HM-411, read-out: MIC

Row | SMILES | MIC [1] [µg/mL] | MIC [5, 15] [µg/mL] | MIC [6, 16] [µg/mL] | MIC [7, 17] [µg/mL] | MIC [8, 18] [µg/mL] | MIC [9, 19] [µg/mL] | MIC [10, 20] [µg/mL] | MIC [11, 21] [µg/mL] | also measured
1 | Oc1c(I)cc(I)c2cccnc12 [DIHQ, 5,7-diiodoquinolin-8-ol] | > 128 | > 128 | 64 (≈ 161 µM) | > 128 | 128 (≈ 322 µM) | 128 (≈ 322 µM) | 16 (≈ 40.3 µM) | > 128 | MIC [2]: 64 to 128 µg/mL (≈ 161 to 322 µM); MIC ([3]; initial screening, C. difficile ATCC BAA 1870, read-out: MIC): 1 µg/mL (≈ 2.52 µM); MIC [4]: 0.5 to 1 µg/mL (≈ 1.26 to 2.52 µM); MIC ([5]; Lactobacillus reuteri HM-102): >128 µg/mL; tested strains with a synergistic relationship ([12]; DIHQ combined with metronidazole): 7 out of 9; tested strains with a synergistic interaction ([12]; DIHQ combined with vancomycin): 5 out of 9
2 | CCc1c(Cl)c(O)c(Cl)c(O)c1C(=O)O[C@H]1[C@H](O)[C@H](OC)[C@H](OC/C2=C\C=C\C[C@H](O)/C(C)=C/[C@H](CC)[C@@H](O[C@@H]3OC(C)(C)[C@@H](OC(=O)C(C)C)[C@H](O)[C@@H]3O)/C(C)=C/C(C)=C/C[C@@H]([C@@H](C)O)OC2=O)O[C@@H]1C [Fidaxomicin, fidaxomicin] | – | > 128 | > 128 | 128 (≈ 121 µM) | ≤ 1 | ≤ 1 | > 128 | 2 (≈ 1.89 µM) | MIC [13]: > 128 µg/mL
3 | Cc1ncc([N+](=O)[O-])n1CCO [Metronidazole, metronidazole] | ≤ 2 | > 128 | > 128 | ≤ 1 | ≤ 1 | ≤ 1 | 16 (≈ 93.5 µM) | 2 (≈ 11.7 µM) | –
4 | CN[C@H](CC(C)C)C(=O)N[C@H]1C(=O)N[C@@H](CC(N)=O)C(=O)N[C@H]2C(=O)N[C@H]3C(=O)N[C@H](C(=O)N[C@H](C(=O)O)c4cc(O)cc(O)c4-c4cc3ccc4O)[C@H](O)c3ccc(c(Cl)c3)Oc3cc2cc(c3O[C@@H]2O[C@H](CO)[C@@H](O)[C@H](O)[C@H]2O[C@H]2C[C@](C)(N)[C@H](O)[C@H](C)O2)Oc2ccc(cc2Cl)[C@H]1O [Vancomycin, vancomycin] | – | – | – | – | – | – | – | – | MIC [14]: ≤ 1 µg/mL; MIC [3]: 1 µg/mL (≈ 0.69 µM); MIC ([5]; Limosilactobacillus reuteri, HM102): > 128 µg/mL; MIC ([6]; Lactobacillus crispatus): 4 µg/mL (≈ 2.76 µM); MIC [7]: 64 µg/mL (≈ 44.2 µM); MIC ([8]; Bifidobacterium longum): ≤ 1 µg/mL; MIC ([9]; Bifidobacterium angulatum): ≤ 1 µg/mL; MIC [10]: > 128 µg/mL; MIC ([11]; Bifidobacterium breve): ≤ 1 µg/mL
